Measured values from the NIST ThermoML archive (doi:10.1016/j.jct.2005.03.012).

Test: molar heat capacity at constant pressure; xn = mol fraction of the nth substance listed
Conditions: Liquid, Flow calorimetry

CO [methanol] + O
Conditions	molar heat capacity at constant pressure [J/K/mol]
329.01 K, 5000 kPa, x1 = 0.9	88.91
330.62 K, 10000 kPa, x1 = 0.8	89.87
330.92 K, 5000 kPa, x1 = 0.8	90.19
330.98 K, 2000 kPa, x1 = 0.8	89.81
331.74 K, 5000 kPa, x1 = 0.1	82.22
332.15 K, 5000 kPa, x1 = 0.7	90.68
333.12 K, 10000 kPa, x1 = 0.6	90
333.19 K, 5000 kPa, x1 = 0.6	90.87
333.43 K, 5000 kPa, x1 = 0.2	86.68
333.48 K, 10000 kPa, x1 = 0.2	86.18
333.52 K, 2000 kPa, x1 = 0.6	90.9
333.71 K, 2000 kPa, x1 = 0.2	86.86
333.89 K, 5000 kPa, x1 = 0.5	90.43
333.95 K, 5000 kPa, x1 = 0.4	89.97
334 K, 5000 kPa, x1 = 0.3	88.54
334.08 K, 10000 kPa, x1 = 0.4	89.57
334.13 K, 2000 kPa, x1 = 0.4	90.16
352.61 K, 5000 kPa, x1 = 0.9	95.17
354.08 K, 5000 kPa, x1 = 0.8	95.72
354.53 K, 5000 kPa, x1 = 0.1	82.78
355.25 K, 5000 kPa, x1 = 0.7	96.11
355.71 K, 5000 kPa, x1 = 0.6	95.6
355.86 K, 5000 kPa, x1 = 0.5	94.46
355.92 K, 5000 kPa, x1 = 0.2	87.32
356.11 K, 5000 kPa, x1 = 0.4	92.66
356.17 K, 5000 kPa, x1 = 0.3	90.87
376.69 K, 5000 kPa, x1 = 0.9	102.61
377.42 K, 5000 kPa, x1 = 0.8	102.59
377.92 K, 5000 kPa, x1 = 0.1	83.23
377.99 K, 5000 kPa, x1 = 0.7	101.84
378.34 K, 5000 kPa, x1 = 0.6	100.47
378.47 K, 5000 kPa, x1 = 0.5	98.56
378.64 K, 5000 kPa, x1 = 0.4	96.44
378.77 K, 5000 kPa, x1 = 0.3	92.83
378.78 K, 5000 kPa, x1 = 0.2	88.72
424.2 K, 5000 kPa, x1 = 0.5	107.27
424.22 K, 5000 kPa, x1 = 0.4	102.77
424.24 K, 5000 kPa, x1 = 0.7	114.48
424.36 K, 10000 kPa, x1 = 0.4	101.14
424.4 K, 2000 kPa, x1 = 0.4	102.94
424.42 K, 2000 kPa, x1 = 0.6	111.49
424.47 K, 5000 kPa, x1 = 0.6	111.25
424.53 K, 10000 kPa, x1 = 0.6	108.79
424.54 K, 5000 kPa, x1 = 0.8	118.06
424.59 K, 2000 kPa, x1 = 0.8	118.73
424.59 K, 10000 kPa, x1 = 0.8	118.7
424.7 K, 10000 kPa, x1 = 0.2	91.26
424.77 K, 2000 kPa, x1 = 0.2	92.01
424.89 K, 5000 kPa, x1 = 0.9	121.27
424.97 K, 5000 kPa, x1 = 0.3	97.58
425.05 K, 5000 kPa, x1 = 0.2	91.9
425.68 K, 5000 kPa, x1 = 0.1	85.15
437.16 K, 8500 kPa, x1 = 0.6	124.31
471.84 K, 10000 kPa, x1 = 0.6	122.64
471.87 K, 10000 kPa, x1 = 0.4	110.24
472.32 K, 5000 kPa, x1 = 0.4	111.75
